This is an account of results in patent publication US8030306B2, “Azabicyclic heterocycles as cannabinoid receptor modulators” (Bristol-Myers Squibb Company, priority 2006, dated 2011).

One data set concerns the target T1, recombinant human CB-1 (Homo sapiens, UniProt P21554).
T1 construct: expressed in transfected cells; host or cells: CHO cells (CHO-CB-1), membrane preparation
The experiment in a line: Cannabinoid receptor binding assay (radioligand 3H-CP-55,940, CHO-CB-1 membranes). Particulars: membranes of CHO cells over-expressing recombinant human CB-1, 2 nM 3H-CP-55,940, read-out: CB1 Ki. The method, then: Radioligand binding studies were conducted in membranes prepared from Chinese Hamster Ovary (CHO) cells that over-express recombinant human CB-1 (CHO-CB-1 cells). Total assay volume for the binding studies was 100 μl. 5 μg of membranes were brought up to a final volume of 95 μl with Binding Buffer (25 mM HEPES, 150 mM NaCl, 2.5 mM CaCl2, 1 mM MgCl2, 0.25% BSA). The diluted membranes were preincubated with a compound or DMSO vehicle. The binding reaction was initiated by the addition of 2 nM final ^3H-CP-55,940 (120 Ci/mmol) and proceeded for 2.5 hours at room temperature. The binding reaction was terminated by transferring the reaction to GF/B 96 well plates (presoaked with 0.3% polyethylenimine) using a Packard Cell Harvester. The filter was washed with 0.25 ×PBS, 30 μl MicroScint was added per well, and the bound radiolabel was quantitated by scintillation counting on a Packard TopCount Scintillation Counter. The CB-2 radioligand binding assay was conducted identically except that the membranes from CHO-CB-2 cells were used.

A short description of data set [1]: Thermodynamic equilibrium aqueous solubility assay. The data set is classed as physicochemical. Particulars: thermodynamic from solid, room temperature, default 50 mM pH 6.5 potassium phosphate buffer. The method, then:
• Assay Name: Thermodynamic Equilibrium Aqueous Solubility Assay • Description: The purpose of this assay is to provide a medium throughput estimation of the thermodynamic equilibrium aqueous solubility of compounds at room temperature. Solvent system default is 50 mM pH 6.5 potassium phosphate buffer. Detailed Protocol:
Standards Preparation—The calibration standard is prepared by accurately weighing 0.5-0.7 mg of sample in 5 ml of methanol. […] A serial dilution is performed on the standard solution.
The final saturated solution is prepared by adding 1.0 ml of the appropriate aqueous solvent to the remaining portion of material (1 dram submission vial). The solution is sonicated and vortexed for ˜30 seconds. The sample solution is placed on an orbiter that continually agitates the sample solutions for 15-24 hours at room temperature. The final saturated solution is then transferred to a 1.5 ml eppendorf tube and centrifuged for ˜2 min. at 10000 rpms. The supernatant from the saturated solution is transferred to a glass HPLC-suitable vial without filtering since the […] is insufficient to saturate the syringe filter. This sample preparation procedure nullifies the effects of non-specific binding to the filtering apparatus.
The standards and sample are analyzed by HPLC using either UV/Vis diode array or variable wavelength detection. Typical quantitation wavelengths are 210 or 254 nm; detection wavelength can be individually customized to optimize sensitivity. In addition to UV detection, mass spectrometry detection is recommended if available in order to confirm the identity of the HPLC-UV peak of interest.
Dilutions of aqueous test solutions are performed if HPLC-UV peak is beyond the linear portion of the standard calibration curve. Typical dilutions include 100 ul/900 ul (×10) or 500 ul/500 ul (2 ×), as required.

For data set [2] the following is noted: 16 week trial period, Phase IIb; cited from earlier work.
Data set [3] is described as follows: Canine half-life assay (IV pharmacokinetics). The format is in vivo. Particulars: dog, plasma; male beagle dogs, IV 1 mg/kg; unit not given in table (text gives hrs). The method, then:
Functional canine half-life of test compounds was determined by methods […] to one of ordinary skill in the art. For example, pharmacokinetic parameters were determined in male beagle dogs (weight of 12.4, 13.2 and 8.9 kg). The intravenous (“IV”) solution dose studies were conducted in a crossover design (n=3). Animals with vascular access ports, chronically implanted in the femoral vein, were used for administration of the dose. The animals had free access to water and were conscious and unrestrained throughout the study. In the IV study, drug was infused at a dose of 1 mg/kg (1 mL/kg) in 50% PEG-400, 10% ethanol and 40% water over 10 minutes. Serial blood samples were collected from the jugular vein at 0.167, 0.25, 0.5, 0.75, 1, 2, 4, 6, 8, 24, 48 and 72 hours post-dose. Plasma was prepared immediately, and the samples were frozen on dry ice and stored at −20° C. until analysis. All samples were analyzed for the concentration of the parent drug by LC-MS/MS analysis.
The pharmacokinetic parameters were calculated by Non-Compartmental Analysis using the […]™ software program (version 4.2, InnaPhase Co., Philadelphia, Pa.). The AUCO-Tlast and AUCtot values were calculated using the trapezoidal summations. The elimination half-life (T1/2) was calculated from the terminal, linear portion of the plasma concentration-time data curve. The total clearance (CLplasma), mean residence time (MRT), and the steady state volume of distribution (Vss) were also calculated after intravenous administration. The total blood clearance (CLblood) was calculated by using the total plasma clearance and the blood to plasma concentration ratio. All results are expressed as mean±SD, unless specified otherwise.

Structures are written as SMILES. Converted amounts (≈) assume the structure as drawn.

T1 sequence (P21554 whole entry): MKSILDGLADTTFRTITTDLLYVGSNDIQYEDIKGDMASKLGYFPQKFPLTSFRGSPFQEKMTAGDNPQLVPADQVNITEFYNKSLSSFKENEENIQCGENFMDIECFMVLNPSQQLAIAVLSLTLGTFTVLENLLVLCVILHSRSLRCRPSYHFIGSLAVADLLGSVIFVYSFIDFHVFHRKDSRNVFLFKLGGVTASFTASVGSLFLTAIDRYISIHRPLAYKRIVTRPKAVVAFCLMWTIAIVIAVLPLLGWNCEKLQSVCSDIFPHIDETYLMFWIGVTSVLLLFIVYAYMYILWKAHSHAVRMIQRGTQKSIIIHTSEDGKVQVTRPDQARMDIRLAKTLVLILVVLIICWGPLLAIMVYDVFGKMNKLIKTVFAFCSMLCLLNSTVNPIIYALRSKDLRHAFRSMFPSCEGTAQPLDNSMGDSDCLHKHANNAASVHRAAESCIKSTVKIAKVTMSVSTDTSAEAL

Turning to `Cc1nc(C(F)(F)F)ccc1Cn1c(=O)c(-c2ccccc2)c(-c2ccc(Cl)cc2)c2nnc([C@@H](C)O)n21` [Example 21, (R)-8-(4-chlorophenyl)-3-(1-hydroxyethyl)-5-((2-methyl-6-(trifluoromethyl)pyridin-3-yl)methyl)-7-phenyl-[1,2,4]triazolo[4,3-b]pyridazin-6(5H)-one], at recombinant human CB-1, the Ki was 27 nM. In data set [1], this compound gave a solubility of 31 µg/mL (≈ 57.4 µM).

For the compound `Cc1nc(C(F)(F)F)ccc1Cn1c(=O)c(-c2ccc(Cl)cc2)c(-c2ccc(Cl)cc2)c2nnc(CN)n21` [Example 15], the Ki on recombinant human CB-1 turned out to be 12 nM. In data set [1], this compound showed a solubility of 16 µg/mL (≈ 28.6 µM).

Regarding `Cc1ccc(-c2c(-c3ccc(Cl)cc3)c3nnc([C@H](C)N)n3n(Cc3ccc(C(F)(F)F)nc3C)c2=O)cc1` [Example 16], the Ki on recombinant human CB-1 stood at 6 nM. Also, the solubility in data set [1] came to 38 µg/mL (≈ 68.7 µM).

For the compound `CNCc1nnc2c(-c3ccc(Cl)cc3)c(-c3ccccc3)c(=O)n(Cc3ccc(C(F)(F)F)nc3C)n12` [Example 14], at recombinant human CB-1, the Ki came out at 10 nM. In addition, the solubility in data set [1] turned out to be 25 µg/mL (≈ 46.4 µM).

Take `Cc1nc(C(F)(F)F)ccc1Cn1c(=O)c(-c2ccc(C#N)cc2)c(-c2ccc(Cl)cc2)c2nnc(CN(C)C)n21` [Example 10, 4-(8-(4-chlorophenyl)-3-((dimethylamino)methyl)-5-((2-methyl-6-(trifluoromethyl)pyridin-3-yl)methyl)-6-oxo-5,6-dihydro-[1,2,4]triazolo[4,3-b]pyridazin-7-yl)benzonitrile]: the Ki on recombinant human CB-1 was 13 nM. Besides, the solubility in data set [1] was determined as 2 µg/mL (≈ 3.46 µM).

Regarding `Cc1nc(C(F)(F)F)ccc1Cn1c(=O)c(-c2ccccc2)c(-c2ccc(Cl)cc2)c2nnc([C@H](C)O)n21` [Example 20, (S)-8-(4-chlorophenyl)-3-(1-hydroxyethyl)-5-((2-methyl-6-(trifluoromethyl)pyridin-3-yl)methyl)-7-phenyl-[1,2,4]triazolo[4,3-b]pyridazin-6(5H)-one], the Ki at recombinant human CB-1 came to 6 nM. In data set [1], this compound gave a solubility of 22 µg/mL (≈ 40.7 µM).

In the case of `Cc1ccc(-c2c(-c3ccc(Cl)cc3)c(=O)n(Cc3ccc(C(F)(F)F)nc3C)n3c([C@H](C)O)nnc23)cc1` [Example 18, (S)-7-(4-chlorophenyl)-3-(1-hydroxyethyl)-5-((2-methyl-6-(trifluoromethyl)pyridin-3-yl)methyl)-8-p-tolyl-[1,2,4]triazolo[4,3-b]pyridazin-6(5H)-one], the Ki on recombinant human CB-1 came to 14 nM. For the same compound, in data set [1], the solubility came out at 7 µg/mL (≈ 12.6 µM).

Consider `Cc1c(C(=O)NN2CCCCC2)nn(-c2ccc(Cl)cc2Cl)c1-c1ccc(Cl)cc1` [SR-141716], for which the “body weight in human subjects” value in data set [2] is on record as “dose-dependently reduced body weight”.

`Cc1ccc(-c2c(-c3ccc(Cl)cc3)c3nnc([C@H](C)O)n3n(Cc3ccc(C(F)(F)F)nc3C)c2=O)cc1` [Example 19, (S)-8-(4-chlorophenyl)-3-(1-hydroxyethyl)-5-((2-methyl-6-(trifluoromethyl)pyridin-3-yl)methyl)-7-p-tolyl-[1,2,4]triazolo[4,3-b]pyridazin-6(5H)-one]: on recombinant human CB-1, the Ki was determined as 5 nM. Also, the solubility in data set [1] came to 7 µg/mL (≈ 12.6 µM).

Consider `Cc1ccc(-c2c(-c3ccc(Cl)cc3)c3nnc(CN)n3n(Cc3ccc(C(F)(F)F)nc3C)c2=O)cc1` [Example 13], for which the Ki at recombinant human CB-1 was 3 nM. This compound had a solubility in data set [1] of 20 µg/mL (≈ 37.1 µM).

In the case of `Cc1nc(C(F)(F)F)ccc1Cn1c(=O)c(-c2ccc(C#N)cc2)c(-c2ccc(Cl)cc2)c2nnc([C@H](C)O)n21` [Example 5, (S)-4-(8-(4-chlorophenyl)-3-(1-hydroxyethyl)-5-((2-methyl-6-(trifluoromethyl)pyridin-3-yl)methyl)-6-oxo-5,6-dihydro-[1,2,4]triazolo[4,3-b]pyridazin-7-yl)benzonitrile], at recombinant human CB-1, the Ki was found to be 10 nM.

`COCc1nnc2c(-c3ccc(Cl)cc3)c(-c3ccccc3)c(=O)n(Cc3ccc(C(F)(F)F)nc3C)n12` [Example 22, 8-(4-chlorophenyl)-3-(methoxymethyl)-5-((2-methyl-6-(trifluoromethyl)pyridin-3-yl)methyl)-7-phenyl-[1,2,4]triazolo[4,3-b]pyridazin-6(5H)-one] showed a half-life in data set [3] of 39 h. For the same compound, at recombinant human CB-1, the inhibitory constant (Ki) stood at 3 nM. In data set [1], this compound gave a solubility of 4 µg/mL (≈ 7.41 µM).

Consider `Cc1nc(C(F)(F)F)ccc1Cn1c(=O)c(-c2ccc(C#N)cc2)c(-c2ccc(Cl)cc2)c2nnc(CO)n21` [Example 3, 4-(8-(4-chlorophenyl)-3-(hydroxymethyl)-5-((2-methyl-6-(trifluoromethyl)pyridin-3-yl)methyl)-6-oxo-5,6-dihydro-[1,2,4]triazolo[4,3-b]pyridazin-7-yl)benzonitrile], for which the half-life in data set [3] was 20 h. For the same compound, the Ki on recombinant human CB-1 is 3 nM. In addition, the solubility in data set [1] came out at 15 µg/mL (≈ 27.2 µM).

Regarding `Cc1nc(C(F)(F)F)ccc1Cn1c(=O)c(-c2ccc(C#N)cc2)c(-c2ccc(Cl)cc2)c2nnc(CN)n21` [Example 11, 4-(3-(aminomethyl)-8-(4-chlorophenyl)-5-((2-methyl-6-(trifluoromethyl)pyridin-3-yl)methyl)-6-oxo-5,6-dihydro-[1,2,4]triazolo[4,3-b]pyridazin-7-yl)benzonitrile], the Ki on recombinant human CB-1 worked out at 11 nM.

For the compound `Cc1ccc(-c2c(-c3ccc(Cl)cc3)c(=O)n(Cc3ccc(C(F)(F)F)nc3C)n3c(CN)nnc23)cc1` [Example 17], at recombinant human CB-1, the Ki was 20 nM. This compound gave a solubility in data set [1] of 31 µg/mL (≈ 57.5 µM).

In data set [3], `COCc1nnc2c(-c3ccc(Cl)cc3)c(-c3ccc(C#N)cc3)c(=O)n(Cc3ccc(C(F)(F)F)nc3C)n12` [Example 2, 4-(8-(4-chlorophenyl)-3-(methoxymethyl)-5-((2-methyl-6-(trifluoromethyl)pyridin-3-yl)methyl)-6-oxo-5,6-dihydro-[1,2,4]triazolo[4,3-b]pyridazin-7-yl)benzonitrile] gave a half-life of 23 h. Further, the Ki on recombinant human CB-1 came to 5 nM. The solubility in data set [1] turned out to be 6 µg/mL (≈ 10.6 µM).

Regarding `Cc1nc(C(F)(F)F)ccc1Cn1c(=O)c(-c2ccccc2)c(-c2ccc(Cl)cc2)c2nnc(CN)n21` [Example 12], the inhibition constant Ki at recombinant human CB-1 was found to be 8 nM. The compound also gave a solubility in data set [1] of 101 µg/mL (≈ 192 µM).

`Cc1nc(C(F)(F)F)ccc1Cn1c(=O)c(-c2ccc(C#N)cc2)c(-c2ccc(Cl)cc2)c2nnc([C@@H](C)O)n21` [Example 4, (R)-4-(8-(4-chlorophenyl)-3-(1-hydroxyethyl)-5-((2-methyl-6-(trifluoromethyl)pyridin-3-yl)methyl)-6-oxo-5,6-dihydro-[1,2,4]triazolo[4,3-b]pyridazin-7-yl)benzonitrile]: the Ki at recombinant human CB-1 worked out at 15 nM. For the same compound, in data set [1], the solubility was 10 µg/mL (≈ 17.7 µM).

The Ki is a measure of affinity in units of concentration, obtained from inhibition or displacement. For orientation: solubility means the dissolved amount per volume that the medium holds. What is called half-life is the time in which the quantity being followed falls by half. A low value points to fast loss.
